“Also recorded” adds a separate entry of the source.
What was measured:
[1] = biological target: T1, PDE6 partially purified from bovine retinal rod and activated by trypsin (Bos taurus, UniProt P11541+P23439); assay: PDE6 inhibition assay, Viagra vs racemic flosequinan (Example 1); assay type: biochemical
T1 construct: from tissue; host or cells: bovine retinal rod
T1 sequence (P11541 2-856 limits assumed): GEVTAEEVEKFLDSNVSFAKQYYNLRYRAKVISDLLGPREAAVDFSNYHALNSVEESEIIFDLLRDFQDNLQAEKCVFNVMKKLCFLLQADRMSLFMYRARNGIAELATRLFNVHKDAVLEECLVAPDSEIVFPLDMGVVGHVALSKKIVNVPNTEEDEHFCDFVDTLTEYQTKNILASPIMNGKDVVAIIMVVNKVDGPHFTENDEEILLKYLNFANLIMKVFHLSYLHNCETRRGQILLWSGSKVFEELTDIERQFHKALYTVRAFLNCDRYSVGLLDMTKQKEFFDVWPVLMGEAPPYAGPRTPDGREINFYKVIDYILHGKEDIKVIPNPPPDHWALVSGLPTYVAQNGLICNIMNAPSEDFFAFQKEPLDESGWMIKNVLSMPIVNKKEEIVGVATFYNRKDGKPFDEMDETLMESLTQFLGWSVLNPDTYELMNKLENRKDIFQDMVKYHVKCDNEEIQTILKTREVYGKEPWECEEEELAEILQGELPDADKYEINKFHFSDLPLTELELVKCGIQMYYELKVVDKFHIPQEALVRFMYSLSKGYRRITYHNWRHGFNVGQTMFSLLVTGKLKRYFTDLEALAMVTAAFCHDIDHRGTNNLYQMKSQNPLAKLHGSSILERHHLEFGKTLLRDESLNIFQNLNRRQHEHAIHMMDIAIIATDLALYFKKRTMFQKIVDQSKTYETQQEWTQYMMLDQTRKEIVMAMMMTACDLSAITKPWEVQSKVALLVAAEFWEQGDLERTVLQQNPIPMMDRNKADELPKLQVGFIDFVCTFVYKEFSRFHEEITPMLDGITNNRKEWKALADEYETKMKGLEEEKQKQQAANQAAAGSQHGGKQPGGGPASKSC
T1 sequence (P23439 2-850 limits assumed): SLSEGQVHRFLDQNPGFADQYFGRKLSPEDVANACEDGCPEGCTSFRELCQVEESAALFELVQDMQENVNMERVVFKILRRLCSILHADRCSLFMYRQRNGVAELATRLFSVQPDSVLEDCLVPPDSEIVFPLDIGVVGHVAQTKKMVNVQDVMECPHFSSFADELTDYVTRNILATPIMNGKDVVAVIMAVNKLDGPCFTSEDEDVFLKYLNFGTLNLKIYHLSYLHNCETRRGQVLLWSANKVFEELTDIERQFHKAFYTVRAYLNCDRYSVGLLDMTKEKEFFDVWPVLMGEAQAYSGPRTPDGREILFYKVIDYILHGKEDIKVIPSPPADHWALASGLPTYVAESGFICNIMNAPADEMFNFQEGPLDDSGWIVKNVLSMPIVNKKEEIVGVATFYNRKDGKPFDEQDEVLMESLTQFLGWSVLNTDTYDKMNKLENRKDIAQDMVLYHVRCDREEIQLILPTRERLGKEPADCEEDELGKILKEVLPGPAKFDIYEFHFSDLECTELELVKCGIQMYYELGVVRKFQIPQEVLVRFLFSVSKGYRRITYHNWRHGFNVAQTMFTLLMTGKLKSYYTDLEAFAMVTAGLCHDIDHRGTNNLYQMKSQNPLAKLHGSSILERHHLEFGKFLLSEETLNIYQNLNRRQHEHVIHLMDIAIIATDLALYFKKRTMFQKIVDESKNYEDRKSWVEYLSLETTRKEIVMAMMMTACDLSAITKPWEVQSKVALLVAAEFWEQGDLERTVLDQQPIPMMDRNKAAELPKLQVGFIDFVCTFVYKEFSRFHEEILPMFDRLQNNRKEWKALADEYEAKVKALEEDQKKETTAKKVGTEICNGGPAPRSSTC
Protocol: (§1) PDE6 partially purified from bovine retinal rod and activated by trypsin was used. In four separate reactions, Viagra at molar concentrations of 0.3 μM, 1.0 μM, and 3.0 μM, and a 100 μM racemic mixture of flosequinan were incubated with 0.2 μg/ml active PDE6 and 100 μM cGMP containing 0.1 μM [^3H]cGMP in Tris buffer pH 7.5 for 20 minutes at 30° C. Each reaction was terminated by raising the temperature to 100° C. for 2 minutes. The resulting GMP was converted to guanosine by addition of 10 mg/ml snake venom nucleotidase and further incubated at 30° C. for 10 minutes. Unhydrolyzed cGMP was bound to AGI-X2 resin, and [^3H]guanosine remaining in the aqueous phase was quantitated by scintillation counting.

[2] = system: PDE4 partially purified from human U-937 pronocytic cells; assay: PDE4 enzyme inhibition assay (Example 3); assay type: biochemical; settings: 100 μM
Protocol: (§2) In this example, a racemic mixture of flosequinan and the (+) and (−) enantiomers of flosequinan were subjected to biochemical enzyme assays to determine their respective percent inhibition of a variety of phosphodiesterases (PDE1-PDE6). The reaction conditions for each PDE assay were as follows.
(§3) PDE4 partially purified from human U-937 pronocytic cells was used. A racemic mixture of flosequinan, and each enantiomer of flosequinan, all at a molar concentration of 100 μM, were independently incubated with 20 μg PDE4 enzyme and 1 μM cAMP containing 0.01 μM [^3H]cAMP in Tris buffer pH 7.5 for 20 minutes at 30° C. The reaction was terminated by boiling for 2 minutes, and the resulting AMP was converted to adenosine by addition of 10 mg/ml snake venom nucleotidase and further incubation at 30° C. for 10 minutes. Unhydrolyzed cAMP was bound to AGI-X2 resin, and the remaining [^3H]adenosine in the aqueous phase was quantitated by scintillation counting.

Solubility = assay type: physicochemical
Description: Thus, while the present invention is not limited by the form of oral administration, aqueous and organic solution of an enantiomer of flosequinan for oral administration is contemplated. Likewise, an enantiomer of flosequinan can be associated with a solid pharmaceutical carrier for solid oral administration (i.e., in pill form).

[3] = system: phosphodiesterase III (PDE3); settings: Gristwood et al. 1992; Frodsham et al. 1992; cited from earlier work
[4] = biological target: T2, PDE1 partially purified from bovine heart (Bos taurus, UniProt P14100); assay: PDE1 enzyme inhibition assay (Example 3); assay type: biochemical; settings: 100 μM
T2 construct: PDE1 partially purified from bovine heart was used; from tissue; host or cells: bovine heart
Protocol: as §2
as §3, with “PDE1 partially” for “PDE4 partially”, “from bovine heart” for “from human U-937 pronocytic cells”, “with 13” for “with 20”, “μg PDE1 enzyme, 1.0” for “μg PDE4 enzyme and 1 μM cAMP containing 0.01”, “[^3H]cAMP and CaCl2/calmodulin” for “[^3H]cAMP”

[5] = biological target: T3, PDE2 partially purified from human platelets (Homo sapiens, UniProt O00408); assay: PDE2 enzyme inhibition assay (Example 3); assay type: biochemical; settings: 100 μM
T3 construct: PDE2 partially purified from human platelets was used; from tissue; host or cells: human platelets
Protocol: as §2
as §3, with “PDE2 partially” for “PDE4 partially”, “human platelets” for “human U-937 pronocytic cells”, “with 23” for “with 20”, “μg PDE2 enzyme, 25” for “μg PDE4 enzyme and 1”, “containing 0.05” for “containing 0.01”

[6] = biological target: T4, PDE3 partially purified from human platelets (Homo sapiens, UniProt Q14432); assay: PDE3 enzyme inhibition assay (Example 3); assay type: biochemical; settings: for % Inhibition of PDE3: 100 μM
T4 construct: PDE3 partially purified from human platelets was used; from tissue; host or cells: human platelets
Protocol: as §2
as §3, with “PDE3 partially” for “PDE4 partially”, “human platelets” for “human U-937 pronocytic cells”, “with 13” for “with 20”, “μg PDE3” for “μg PDE4”

[7] = biological target: T5, PDE5 partially purified from human platelets (Homo sapiens, UniProt O76074); assay: PDE5 enzyme inhibition assay (Example 3); assay type: biochemical; settings: 100 μM
T5 construct: PDE5 partially purified from human platelets was used; from tissue; host or cells: human platelets
Protocol: as §2
PDE5 partially purified from human platelets was used. A racemic mixture of flosequinan, and each enantiomer of flosequinan, all at a molar concentration of 100 μM, were independently incubated with 120 μg PDE5 enzyme and 1 μM cGMP containing 0.01 μM [^3H]cGMP in Tris buffer pH 7.5 for 20 minutes at 30° C. The reaction was terminated by boiling for 2 minutes, and the resulting GMP was converted to guanosine by addition of 10 mg/ml snake venom nucleotidase and further incubation at 30° C. for 10 minutes. Unhydrolyzed cGMP was bound to AGI-X2 resin, and the remaining [^3H]guanosine in the aqueous phase was quantitated by scintillation counting.

[8] = biological target: T1, PDE6 partially purified from bovine retinal rod and activated by trypsin; assay: PDE6 enzyme inhibition assay (Example 3); assay type: biochemical; settings: 100 μM
Protocol: as §2
as §1, with “A” for “In four separate reactions, Viagra at molar concentrations of 0.3 μM, 1.0 μM, and 3.0 μM, and a 100 μM”, “flosequinan, and each enantiomer of flosequinan, all at a molar concentration of 100 μM,” for “flosequinan”, “were independently” for “were”, “boiling” for “raising the temperature to 100° C.”, “nucleotidase,” for “nucleotidase”

T4 sequence (Q14432 whole entry): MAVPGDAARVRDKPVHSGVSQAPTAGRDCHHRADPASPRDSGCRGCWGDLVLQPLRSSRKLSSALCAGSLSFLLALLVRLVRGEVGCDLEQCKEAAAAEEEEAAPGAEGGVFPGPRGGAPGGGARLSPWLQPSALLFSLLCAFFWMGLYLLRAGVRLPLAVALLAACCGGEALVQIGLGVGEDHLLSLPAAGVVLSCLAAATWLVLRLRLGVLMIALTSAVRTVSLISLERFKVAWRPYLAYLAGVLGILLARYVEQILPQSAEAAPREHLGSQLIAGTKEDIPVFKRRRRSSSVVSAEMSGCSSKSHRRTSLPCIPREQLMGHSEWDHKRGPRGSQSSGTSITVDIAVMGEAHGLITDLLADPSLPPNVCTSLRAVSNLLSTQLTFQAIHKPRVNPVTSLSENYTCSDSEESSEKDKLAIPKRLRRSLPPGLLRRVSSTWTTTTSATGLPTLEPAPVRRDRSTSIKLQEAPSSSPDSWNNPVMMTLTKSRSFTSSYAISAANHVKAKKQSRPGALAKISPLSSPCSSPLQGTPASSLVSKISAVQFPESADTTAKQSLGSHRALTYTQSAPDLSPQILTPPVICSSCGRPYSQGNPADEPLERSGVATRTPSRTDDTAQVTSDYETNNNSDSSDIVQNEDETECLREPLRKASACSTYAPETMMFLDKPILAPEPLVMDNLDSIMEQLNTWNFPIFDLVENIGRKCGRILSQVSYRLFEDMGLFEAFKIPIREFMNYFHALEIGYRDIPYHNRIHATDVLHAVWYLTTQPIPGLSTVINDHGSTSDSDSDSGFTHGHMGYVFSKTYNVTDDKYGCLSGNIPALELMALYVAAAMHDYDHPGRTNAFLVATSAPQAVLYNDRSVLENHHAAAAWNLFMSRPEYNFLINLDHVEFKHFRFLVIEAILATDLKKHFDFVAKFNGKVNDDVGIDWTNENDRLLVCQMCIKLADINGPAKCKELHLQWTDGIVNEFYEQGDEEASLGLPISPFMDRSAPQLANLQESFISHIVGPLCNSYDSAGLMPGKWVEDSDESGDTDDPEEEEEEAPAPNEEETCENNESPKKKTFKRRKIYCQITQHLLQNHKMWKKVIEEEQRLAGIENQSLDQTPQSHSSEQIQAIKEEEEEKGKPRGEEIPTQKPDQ
T3 sequence (O00408 whole entry): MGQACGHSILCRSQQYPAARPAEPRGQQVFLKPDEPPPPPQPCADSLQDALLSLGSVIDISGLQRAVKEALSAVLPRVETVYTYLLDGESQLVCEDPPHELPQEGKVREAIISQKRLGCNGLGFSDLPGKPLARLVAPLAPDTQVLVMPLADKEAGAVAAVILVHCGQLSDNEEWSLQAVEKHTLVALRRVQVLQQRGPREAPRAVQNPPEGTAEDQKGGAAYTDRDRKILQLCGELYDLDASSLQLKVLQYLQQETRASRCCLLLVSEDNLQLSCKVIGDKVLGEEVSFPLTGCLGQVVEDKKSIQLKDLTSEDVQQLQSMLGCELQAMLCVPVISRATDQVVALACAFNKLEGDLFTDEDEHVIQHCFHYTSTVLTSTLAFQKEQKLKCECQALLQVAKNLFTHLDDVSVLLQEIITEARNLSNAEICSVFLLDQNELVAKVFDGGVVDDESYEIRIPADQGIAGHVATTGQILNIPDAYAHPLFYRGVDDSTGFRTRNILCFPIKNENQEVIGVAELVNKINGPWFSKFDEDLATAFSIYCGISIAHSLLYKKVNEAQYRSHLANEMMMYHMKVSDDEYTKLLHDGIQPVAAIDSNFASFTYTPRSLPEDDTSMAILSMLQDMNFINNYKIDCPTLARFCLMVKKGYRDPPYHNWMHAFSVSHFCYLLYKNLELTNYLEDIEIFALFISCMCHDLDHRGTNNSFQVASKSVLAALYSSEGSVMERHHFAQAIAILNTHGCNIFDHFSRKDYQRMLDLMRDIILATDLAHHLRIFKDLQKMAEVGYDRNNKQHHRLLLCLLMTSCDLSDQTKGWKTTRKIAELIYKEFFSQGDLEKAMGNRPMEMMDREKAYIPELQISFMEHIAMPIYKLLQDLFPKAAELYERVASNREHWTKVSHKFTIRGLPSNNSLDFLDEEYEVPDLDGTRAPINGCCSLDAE

SMILES | % Inhibition of PDE4 [2] [%] | % Inhibition of PDE1 [4] [%] | % Inhibition of PDE2 [5] [%] | % Inhibition of PDE3 [6] [%] | % Inhibition of PDE5 [7] [%] | % Inhibition of PDE6 [8] [%] | melting point [°C] | also measured
Cn1cc([S+](C)[O-])c(=O)c2ccc(F)cc21 (racemic) [Flosequinan, 7-fluoro-1-methyl-3-(methylsulphinyl)-4(1H)-quinolone] | 24 |  |  |  |  |  |  | inhibition of PDE6 compared to sildenafil citrate ([1]; 100 μM vs sildenafil citrate 1 μM (100-fold lower molar concentration)): approximately half as much inhibition of PDE6; times more compound on a molar basis than Viagra for around 50% PDE6 inhibition ([1]; vs Viagra 0.3 μM): more than 300 times; solubility in organic solvents (Solubility; organic solvents): soluble in many organic solvents; solubility in water (Solubility; water): water soluble; reported phosphodiesterase selectivity [3]: selective inhibitor of phosphodiesterase III (PDE3)
Cn1cc([S+](C)[O-])c(=O)c2ccc(F)cc21 (stereo not drawn) [(−)−flosequinan] | 1 | 11 | 13 | 5 | 10 | 21 |  | 
Cn1cc([S@@+](C)[O-])c(=O)c2ccc(F)cc21 [(+)−flosequinan] | 6 | 28 | 18 | 32 | 17 | 22 |  | PDE1 inhibitory activity compared with the (−) enantiomer of flosequinan [4]: more PDE1 and PDE3 inhibitory activity; PDE3 inhibition compared to racemic mixture of flosequinan ([6]; same molar concentration): greater inhibition of PDE3; PDE3 inhibition compared to the (−) enantiomer of flosequinan ([6]; same molar concentration, listed as (+) enantiomer of flosequinan): more PDE1 and PDE3 inhibitory activity; also recorded: eight-fold increase
Cn1cc(C(N)=O)c(=O)c2sccc21 [Example 4 b, 4-methyl-7-oxo-4,7-dihydrothieno[3,2-b]pyridine-6-carboxamide] |  |  |  |  |  |  | 255 to 258 | 
Cn1cc(C(N)=O)c(=O)c2ccc(Cl)cc21 [Example 4 e, 7-chloro-1-methyl-4-oxo-1,4-dihydroquinoline-3-carboxamide] |  |  |  |  |  |  | > 240 | 

Source: patent US6562838B2, “Treatment of cardiovascular disease with quinolinone enantiomers” (R. T. Alamo Ventures I, L.L.C., priority 2001, dated 2003)
